In patent US6376521B1, “A3 adenosine receptor antagonists” (The United States of America as represented by the …, priority 1998, dated 2002):
Like-named read-outs stand apart in the source and are kept apart here.

Legend:
A1 adenosine receptors = target: T1, A1 adenosine receptors (Rattus norvegicus, UniProt P25099); assay: Displacement of specific [3H]R-PIA binding in rat brain membranes; conditions: for inhibition at 100 µM: Table 3, read-out: rA1 % inhibition (percentage of specific binding displaced); for inhibition at 100 µM / rA1 percentage of specific binding displaced: at 10^−4 M; for Ki: Table 2, compounds 33-58, [3H]R-PIA, rat brain membranes, n = 3-5, read-out: rA1 Ki ± S.E.M.; for rA1 percentage of specific binding displaced: Table 2
T1 construct: from tissue
T1 sequence (P25099 1-326): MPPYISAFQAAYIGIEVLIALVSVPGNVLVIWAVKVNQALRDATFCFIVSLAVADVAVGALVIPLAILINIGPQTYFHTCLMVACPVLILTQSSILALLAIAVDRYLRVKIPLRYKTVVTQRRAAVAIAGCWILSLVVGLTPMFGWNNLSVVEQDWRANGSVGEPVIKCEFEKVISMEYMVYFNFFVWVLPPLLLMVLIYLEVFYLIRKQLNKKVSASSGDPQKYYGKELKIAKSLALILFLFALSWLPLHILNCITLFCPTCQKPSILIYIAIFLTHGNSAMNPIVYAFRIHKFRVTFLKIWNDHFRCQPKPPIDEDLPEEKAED

A2A adenosine receptors = target: T2, A2A adenosine receptors (Rattus norvegicus, UniProt P30543); assay: Displacement of specific [3H]CGS 21680 binding in rat striatal membranes; conditions: for Ki: [3H]CGS 21680, rat striatal membranes, n = 3-6, read-out: rA2A Ki ± S.E.M.; for rA2A displacement of specific binding (class d): at 10^−4 M
T2 construct: from tissue

human A3 receptors = target: T3, human A3 receptors (Homo sapiens, UniProt P0DMS8); assay: Displacement of specific [125I]AB-MECA binding at human A3 receptors expressed in HEK cells, in membranes; conditions: for Ki: [125I]AB-MECA, HEK cell membranes, n = 3-4, read-out: hA3 Ki ± S.E.M.; for rA1/hA3: ratio of affinities rat A1 vs human A3
T3 construct: expressed in transfected cells
T3 sequence (P0DMS8 1-318): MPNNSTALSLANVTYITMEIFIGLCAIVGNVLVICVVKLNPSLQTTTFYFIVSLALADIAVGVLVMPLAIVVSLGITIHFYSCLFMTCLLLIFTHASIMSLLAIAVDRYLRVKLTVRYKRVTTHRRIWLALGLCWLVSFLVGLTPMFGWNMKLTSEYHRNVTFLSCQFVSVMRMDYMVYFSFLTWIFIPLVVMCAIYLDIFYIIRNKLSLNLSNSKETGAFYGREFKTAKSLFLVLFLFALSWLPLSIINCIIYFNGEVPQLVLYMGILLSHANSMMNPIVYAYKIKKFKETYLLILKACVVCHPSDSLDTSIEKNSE

rat A3 receptors = target: T4, rat A3 receptors (Rattus norvegicus, UniProt P28647); assay: Displacement of specific [125I]AB-MECA binding at rat A3 receptors stably expressed in CHO cells; conditions: for Ki / rA3/hA3 / rA1/rA3: Table 4; for Ki: [125I]AB-MECA, CHO cells, n = 3-5, read-out: rA3 Ki; for rA3/hA3: ratio of affinities at rat vs. human A3 receptors; for rA1/rA3: ratio of affinities rat A1 vs rat A3
T4 construct: expressed in transfected cells
T4 sequence (P28647 1-320): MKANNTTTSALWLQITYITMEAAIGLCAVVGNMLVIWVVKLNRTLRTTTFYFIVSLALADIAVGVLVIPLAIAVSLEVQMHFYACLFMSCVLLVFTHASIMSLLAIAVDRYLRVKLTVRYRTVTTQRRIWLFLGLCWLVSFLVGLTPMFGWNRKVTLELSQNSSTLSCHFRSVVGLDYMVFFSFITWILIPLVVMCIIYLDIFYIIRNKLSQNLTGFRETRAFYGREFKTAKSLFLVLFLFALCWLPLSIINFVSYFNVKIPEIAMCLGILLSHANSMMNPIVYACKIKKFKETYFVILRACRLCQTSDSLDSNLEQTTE

T2 sequence (P30543 whole entry): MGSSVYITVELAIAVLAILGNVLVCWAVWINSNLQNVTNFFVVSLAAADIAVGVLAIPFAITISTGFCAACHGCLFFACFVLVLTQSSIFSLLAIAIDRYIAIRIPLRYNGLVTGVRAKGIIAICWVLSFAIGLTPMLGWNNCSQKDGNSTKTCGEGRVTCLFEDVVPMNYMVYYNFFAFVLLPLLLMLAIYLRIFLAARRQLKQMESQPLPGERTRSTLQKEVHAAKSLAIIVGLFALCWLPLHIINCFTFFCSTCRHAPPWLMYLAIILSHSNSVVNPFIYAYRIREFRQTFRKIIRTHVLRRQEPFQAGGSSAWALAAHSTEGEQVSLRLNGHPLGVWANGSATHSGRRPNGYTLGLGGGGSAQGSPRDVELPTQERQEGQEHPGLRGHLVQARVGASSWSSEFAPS

Compound | inhibition at 100 µM (A1 adenosine receptors) | Ki (A2A adenosine receptors; Table 3) | Ki (human A3 receptors; Table 3) | rA1/hA3 (human A3 receptors; Table 3) | Ki (rat A3 receptors) | rA3/hA3 (rat A3 receptors) | rA1/rA3 (rat A3 receptors) | rA2A displacement of specific binding (class d) (A2A adenosine receptors; Table 3) | Ki (A1 adenosine receptors) | Ki (A2A adenosine receptors; Table 2, compounds 33-58) | Ki (human A3 receptors; Table 2, compounds 33-58) | rA1/hA3 (human A3 receptors; Table 2) | rA1 percentage of specific binding displaced (A1 adenosine receptors) | rA2A displacement of specific binding (class d) (A2A adenosine receptors; Table 2) | affinity at rat and human A3 receptors (in words) (rat A3 receptors; both species)
CCSC(=O)C1=C(C)NC(c2ccccc2)=C(C(=O)OCc2ccccc2)C1CC (racemic) [Compound 65, 5-Benzyl 2-methyl-4ethyl-6-phenyl-3-(ethylsulfanylcarbonyl)-1,4-(±)-dihydropyridine-5-carboxylate] | 45 ± 2% | 14300 ± 4200 nM | 1650 ± 400 nM | >50 | 2800 ± 280 nM | 1.7 | >20 | – | – | – | – | – | – | – | –
CCOC(=O)C1=C(c2ccccc2)NC(CC)=C(C(=O)SCC)C1CC (racemic) [Compound 75, 5-Ethyl 2,4-diethyl-6-phenyl-3-(ethylsulfanylcarbonyl)-1,4-(±)-dihydropyridine-5-carboxylate] | 34 ± 7% | 29100 ± 9900 nM | 907 ± 44 nM | >50 | 2520 ± 880 nM | 2.8 | >30 | – | – | – | – | – | – | – | –
CCCC1=C(C(=O)SCC)C(CC)C(C(=O)OCC)=C(c2ccccc2)N1 (racemic) [Compound 76, 5-Ethyl 2-propyl-4-ethyl-6-phenyl-3-(ethylsulfanylcarbonyl)-1,4-(±)-dihydropyridine-5-carboxylate] | 26 ± 19% | – | 2090 ± 40 nM | >20 | 2730 ± 140 nM | 1.3 | >30 | d (10^−4) (Displacement of < 10% of specific binding at the indicated concentration (M).) | – | – | – | – | – | – | –
CCOC(=O)c1c(-c2ccccc2)nc(C)c(C(=O)SCC)c1CC [Compound 36, 5-Ethyl 2-methyl-4-ethyl-3-(ethylsulfanylcarbonyl)-6-phenylpyridine-5-carboxylate] | – | – | – | – | 1470 ± 340 nM | 34 | 10 | – | 14800 ± 3500 nM | 14900 ± 4100 nM | 42.9 ± 8.8 nM | 340 | – | – | –
CCCc1c(C(=O)SCC)c(C)nc(-c2ccccc2)c1C(=O)OCC [Compound 38, 5-Ethyl-2-methyl-4-propyl-3-(ethylsulfanylcarbonyl)-6-phenylpyridine-5-carboxylate] | – | – | – | – | 650 ± 70 nM | 3.4 | >100 | – | – | 7530 ± 2700 nM | 194 ± 51 nM | >700 | 29 ± 6% (10^−4) | – | –
CCSC(=O)c1c(C)nc(-c2ccccc2)c(C(=O)OCc2ccccc2)c1CC [Compound 39, 5-Benzyl 2-methyl-4-ethyl-3-(ethylsulfanylcarbonyl)-6-phenylpyridine-5-carboxylate] | – | – | – | – | 1800 ± 320 nM | 0.69 | >50 | – | – | 12800 ± 2900 nM | 2610 ± 960 nM | >40 | 20 ± 8% (10^−4) | – | –
CCOC(=O)c1c(-c2ccccc2)nc(CC)c(C(=O)SCC)c1CC [Compound 48, 5-Ethyl 2,4-diethyl-3-(ethylsulfanylcarbonyl)-6-phenylpyridine-5-carboxylate] | – | – | – | – | 410 ± 48 nM | 21 | >100 | – | – | 6130 ± 1280 nM | 20 ± 1.9 nM | >3000 | 41 ± 6% (10^−4) | – | –
CCCOC(=O)c1c(-c2ccccc2)nc(CC)c(C(=O)SCC)c1CCC [Compound 49b, 5-Propyl 2-ethyl-4-propyl-3-(ethylsulfanylcarbonyl)-6-phenylpyridine-5-carboxylate] | – | – | – | – | 113 ± 12 nM | 6.0 | 140 | – | 18200 ± 9000 nM | – | 24.5 ± 4 nM | 7400 | – | d (10^−4) (Displacement of <10% of specific binding at the indicated concentration (M).) | high affinity at both species
CCSC(=O)c1c(CC)nc(-c2ccccc2)c(C(=O)OCCO)c1CC [Compound 50, 5-Hydroxylethyl 2,4-diethyl-3-(ethylsulfanylcarbonyl)-6-phenylpyridine-5-carboxylate] | – | – | – | – | 2870 ± 480 nM | 15 | 6.1 | – | 17400 ± 5290 nM | 10000 ± 3000 nM | 188 ± 61 nM | 93 | – | – | –
